# In US20260014278A1, “HYBRID PEPTIDE DENDRIMER SYSTEMS AND EXTRAHEPATIC DELIVERY” (NUNTIUS THERAPEUTICS LIMITED, priority 2022, published 2026):
# Key:
# Neuro2A cells = assay: Luciferase plasmid (pCl-Luc) DNA transfection of Neuro2A cells; format: cell-based; conditions: for transfection, comparison of generations G1, G2, G3: pCl-Luc with D/D, 24 h, FIG. 16B
# Description: (§1) FIG. 15. Comparison of the transfection efficiency of G1,2,3-RL with other commercial transfection reagents including DOTMA/DOPE, Polyethylenimine and Lipofectamine 2000 for DNA delivery. (A) Transfection in HeLa cells without the presence of serum, (B) transfection in HeLa cells with the presence of serum, (C) transfection in Neuro2A cells without the presence of serum and (D) transfection in Neuro2A cells with the presence of serum. Cells transfected with a luciferase-expressing plasmid (pCl-Luc) in the presence of GSCG1,2,3-RL with D/D (measured 24 h after transfection). The luminescence values were normalized by dividing them by the analogous values for cells treated with a D/D DNA complex to generate the % of transfection. Conditions: 1×10^4 cells were transfected with 0.25 μg pCl-Luc for 4 hours without serum or in the presence of 10% serum. Error bars refer to the mean±SEM for experiments carried out in triplicate. […] D/D is DOTMA/DOPE at w/w 1:1.
# (§2) FIG. 16. Comparison of the transfection efficiency of dendrimers with different generations (G1, G2 and G3) with different N/P ratios and cationic residues (e.g. KL vs RL) for DNA delivery. (A) Transfection efficiency in HeLa cells, (B) transfection efficiency in Neuro2A cells. Cells transfected with a luciferase-expressing plasmid (pCl-Luc) in the presence of peptide dendrimers with D/D (measured 24 h after transfection). The luminescence values were normalized by dividing them by the analogous values for cells treated with a D/D DNA complex (w/w 1:1, 0.25 μg) to generate the % of transfection. Conditions: 1×10^4 cells were transfected with 0.25 μg pCl-Luc. Error bars refer to the mean±SEM for experiments carried out in triplicate. * denotes p<0.05. D/D is DOTMA/DOPE at w/w 1:1. Generation 2 and generation 3 dendrimers perform better at transfecting both HeLa and Neuro2A cells compared to generation 1 dendrimers.
# (§3) Using a third generation peptide dendrimer, GSCG1,2,3-RL, the inventors also compared the transfection efficiency of DNA using this dendrimer to that of commercially available transfection reagents. […]
# HeLa cells = assay: Luciferase plasmid (pCl-Luc) DNA transfection of HeLa cells; format: cell-based, human; conditions: for transfection, comparison of generations G1, G2, G3: pCl-Luc with D/D, 24 h, FIG. 16A
# Description: as §1, §2, §3
# [1] = Dynamic light scattering: hydrodynamic size and polydispersity index (PDI) of nanoparticles; format: physicochemical
# Procedure: (§4) The hydrodynamic size was measured using the dynamic light scattering (DLS) technique. DLS is a very sensitive, non-invasive method to measure size and size distribution of nanoparticles in a liquid. […] Analysing these intensity fluctuations allows us to calculate the velocity of the Brownian motion. The size of the nanoparticles can be determined by using the Stokes-Einstein relationship. With the latest technology, it can measure nanoparticles smaller than 1 nm.
# PDI is used to estimate the average uniformity of a particle solution, The method of cumulants is a standard technique for analysing DLS data on sample polydispersity. PDI is a number calculated from a 2 parameter fit to the correlation data (the cumulants analysis). The cumulants analysis is used to evaluate the autocorrelation function generated by a DLS experiment. The calculation is defined in ISO 13321 and ISO 22412. PDI values greater than 0.7 indicate that the sample has a very broad size distribution and is not suitable for the DLS technique. The calculations for these parameters are defined in the ISO standard document 13321:1996 E and ISO 22412:2008.
# as §4, with “Size, zeta potential and polydispersity index (PDI) measurement: The hydrodynamic” for “The hydrodynamic”, “scattering (DLS) technique using the Zetasizer Advance Series—Pro (Malvern Panalytical Ltd, Malvern, UK) according to the manufacturer's instructions. DLS is” for “scattering (DLS) technique. DLS is”
# The data obtained with DLS measurements can also be used to calculate the PDI of particle in solution. PDI is used to estimate the average uniformity of a particle solution. The method of cumulants is a standard technique for analysing DLS data on sample polydispersity. PDI is a number calculated from a 2 parameter fit to the correlation data (the cumulants analysis). The cumulants analysis is used to evaluate the autocorrelation function generated by a DLS experiment. The calculation is defined in ISO 13321 and ISO 22412. PDI values greater than 0.7 indicate that the sample has a very broad size distribution and is not suitable for the DLS technique. The calculations for these parameters are defined in the ISO standard document 13321:1996 E and ISO 22412:2008.
# To measure the size and PDI, the samples were diluted 16× in 25 mM HEPES buffer (5 μl sample+75 μl buffer). Parameters: reference material: polystyrene latex, dispersant: water, 25° C. The PDI measurements were measured in nanoparticles comprising a dendrimer:nucleic acid NP ratio of 8:1.
# human THP-1 cells = assay: eGFP mRNA transfection of human THP-1 macrophages, flow cytometry; format: cell-based; conditions: GSCG1,2-RL, 3-LR NP=0.16:1, GSCG1-LRLR NP=0.6, GSCG1,2-RHL NP=5:1, GSCG1,2-RF, 3HL NP=0.6:1, RHCG1-R NP=0.6:1, DOTMA:DOPE w/w 10:1, lipid-only w/w 3.2:1, FIG. 3
# Procedure: THP-1 cells (a human leukaemia monocytic cell line) were sub-cultured in RPMI (with glutamax)+10% heat inactivated FBS (complete media) at 3E+5 cells/ml and passaged every 3-4 days. For macrophage polarisation 7.5E+6 cells were seeded in T75 flasks in a total of 20 ml complete media containing 5 ng/ml PMA (1:1000 of 5 ug/ml stock). The cells were transferred to the 37° C. incubator for overnight. After 24 hrs, THP-1 cells were washed with complete medium and a fresh flask complete medium (not containing PMA) was overlaid on the cells. After a further 72 hrs, the complete medium was exchanged for fresh complete media containing 20 ng/ml rhlL-4 (1:500 of 10 μg/ml stock). 24 hrs later the cells were harvested by firstly washing the cells with PBS followed by a 5 minute treatment at 37° C. with 5 mM EDTA (diluted in PBS). Cells were spun down at 300 g for 5 minutes and resuspended in a complete medium containing 20 ng/ml rhlL-4 at 2.4E+5 cells/mi. 500 ul of cells were seeded into each well on a 24-well plate and left overnight in the 37° C. incubator.
# The medium overlaying the polarised THP-1 cells was aspirated and exchanged with 480 ul/well complete media containing 20 ng/ml rhlL-4. […]
# Data were collected using a BD LSRFortessa I analyser running […] software (Beckton Dickinson). All collected data were analysed using FlowJo 10.0 software. […]
# [2] = test system: macrophage-polarised primary bone marrow derived monocytes; assay: eGFP mRNA transfection of macrophage-polarised primary mouse bone marrow derived monocytes, flow cytometry; format: cell-based; conditions: GSCG1,2-RHL NP=0.6:1, GSCG1,2-RL, 3-LR NP=0.16:1, GSCG1,RL, 2-LR NP=8:1, DOTMA:DOPE w/w 10:1, lipid-only DOTMA/DOPE w/w 3.2:1, FIG. 2
# Procedure: BMDM cells were isolated using the StemCell Tech EasySep Mouse Monocyte Isolation Kit from mouse bone marrow cell suspension. The cells were resuspended in complete medium (DMEM+1% glutamax+10% heat inactivated FBS+1% Pen/Strep) enriched with 50 ng/ml murine M-CSF (1:1000 of 50 μg/ml stock) at 1E+6 cells/mi. 2 million cells (i.e. 2 mL) was seeded in each well of 6-well plate(s). The plate was incubated at 37° C. for 4 days. Half media exchange was performed using complete media enriched with […] murine M-CSF and 40 ng/ml murine IL-4. Cells were then harvested the next day (day 5) by washing cells with PBS and a 10 minute incubation with 5 mM EDTA (diluted in PBS) at 37° C. followed by plate tapping and resuspension. […]
# Data were collected using a BD LSRFortessa I analyser running […] software (Beckton Dickinson). All collected data were analysed using FlowJo 10.0 software.
# Transfection efficiency of macrophage-polarised primary bone marrow derived monocytes using various peptide dendrimer/lipid nanoparticles was assessed and compared to lipid-only nanoparticles (LPX-RNA). Each nanoparticle, with or without dendrimer, included eGFP mRNA to allow analysis of absolute numbers of cells transfected to be assessed by flow cytometry. […]
substance,measurement,setting,value
(KL)2KGSC-NH2 [GSCG1-KL],"transfection, comparison of generations G1, G2, G3",Neuro2A cells,do not transfect
same,"transfection, comparison of generations G1, G2, G3",HeLa cells,do not transfect
"(RL)4(KRL)2KGSC-NH2 [GSCG1,2-RL]","transfection efficiency in comparison to GSCG1,2-KL","Neuro2A cells; N/P ratio of 20:1, FIG. 16",higher transfection efficiency
same,"transfection efficiency in comparison to GSCG1,2-KL","HeLa cells; N/P ratio of 10:1 or 20:1, FIG. 16",higher transfection efficiency
(R)2KRHC-NH2 [RHCG1-R],PDI,"[1]; Table 7, first generation dendrimers for mixed dendrimer nanoparticles",0.566
same,transfection efficiency,human THP-1 cells,30-35%
(RL)2KGSC-NH2 [GSCG1-RL],"transfection, comparison of generations G1, G2, G3",Neuro2A cells,do not transfect
same,"transfection, comparison of generations G1, G2, G3",HeLa cells,do not transfect
"(LR)4(KRL)2KRHC-NH2 [RHCG1-RL, 2-LR]",Polydispersity Index (PDI),"[1]; peptide dendrimer, lipid and mRNA complexes, N:P 8:1, DOTMA/DOPE w/w 10:1 to mRNA",0.109
same,transfection efficiency,[2],~50%
